Earlier results in patent US5718912A, “Muscarine agonists” (Merck & Co., Inc., priority 1996, dated 1998).
Entries after “also recorded” stand apart in the source; their conditions may differ.

System: intraocular pressure

## CC[C@@H]1C(=O)OC[C@@H]1Cc1cncn1C [pilocarpine]
Pilocarpine therapy
  side effects: miosis (decrease of pupil size); also recorded: systemic CNS effects
Topical administration
  effect on intraocular pressure: lowers intraocular pressure by increasing outflow
